Assay results published in patent US20100242139A1, “XENOHORMESIS BASED COMPOSITIONS AND METHODS” (President and Fellows of Harvard College, priority 2006, published 2010).

Columns and labels:
Format in all cases: biochemical
JNK1α1(h) = JNK1α1(h) (Homo sapiens, UniProt P45983); assay: kinase panel activity, JNK1α1(h); conditions: compound at 20 μM; vs reference with no compound
SAPK3(h) = SAPK3(h) (Homo sapiens, UniProt P53778); assay: kinase panel activity, SAPK3(h); conditions: compound at 20 μM; vs reference with no compound
CDK3/cyclinE(h) = CDK3/cyclinE(h) (Homo sapiens, UniProt Q00526); assay: kinase panel activity, CDK3/cyclinE(h); conditions: compound at 20 μM; vs reference with no compound
Chain of CDK3/cyclinE(h) (Q00526 whole entry): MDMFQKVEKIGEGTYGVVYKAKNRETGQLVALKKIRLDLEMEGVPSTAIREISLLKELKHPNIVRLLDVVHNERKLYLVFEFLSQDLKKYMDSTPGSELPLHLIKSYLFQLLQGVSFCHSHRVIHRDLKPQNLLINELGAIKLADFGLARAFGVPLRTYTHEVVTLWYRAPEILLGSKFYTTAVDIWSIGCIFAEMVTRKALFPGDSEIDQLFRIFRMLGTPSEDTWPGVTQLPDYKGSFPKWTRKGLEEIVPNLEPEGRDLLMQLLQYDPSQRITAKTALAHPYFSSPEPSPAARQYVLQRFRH
Chain of CDK3/cyclinE(h) (P24864 whole entry partner): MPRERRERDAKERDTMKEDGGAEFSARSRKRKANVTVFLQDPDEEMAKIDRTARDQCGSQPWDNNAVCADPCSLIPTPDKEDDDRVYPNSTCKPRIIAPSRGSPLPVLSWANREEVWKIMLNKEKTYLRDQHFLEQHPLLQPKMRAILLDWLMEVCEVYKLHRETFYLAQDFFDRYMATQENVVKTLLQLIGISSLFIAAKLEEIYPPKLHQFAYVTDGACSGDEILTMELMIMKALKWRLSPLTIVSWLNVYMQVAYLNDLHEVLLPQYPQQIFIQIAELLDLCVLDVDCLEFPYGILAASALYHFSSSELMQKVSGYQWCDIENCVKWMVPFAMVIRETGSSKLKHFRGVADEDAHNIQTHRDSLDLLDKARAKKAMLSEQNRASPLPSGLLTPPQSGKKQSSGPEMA

TrkA(h) = TrkA(h) (Homo sapiens, UniProt P04629); assay: kinase panel activity, TrkA(h); conditions: compound at 20 μM; vs reference with no compound
Chain of TrkA(h) (P04629 33-796): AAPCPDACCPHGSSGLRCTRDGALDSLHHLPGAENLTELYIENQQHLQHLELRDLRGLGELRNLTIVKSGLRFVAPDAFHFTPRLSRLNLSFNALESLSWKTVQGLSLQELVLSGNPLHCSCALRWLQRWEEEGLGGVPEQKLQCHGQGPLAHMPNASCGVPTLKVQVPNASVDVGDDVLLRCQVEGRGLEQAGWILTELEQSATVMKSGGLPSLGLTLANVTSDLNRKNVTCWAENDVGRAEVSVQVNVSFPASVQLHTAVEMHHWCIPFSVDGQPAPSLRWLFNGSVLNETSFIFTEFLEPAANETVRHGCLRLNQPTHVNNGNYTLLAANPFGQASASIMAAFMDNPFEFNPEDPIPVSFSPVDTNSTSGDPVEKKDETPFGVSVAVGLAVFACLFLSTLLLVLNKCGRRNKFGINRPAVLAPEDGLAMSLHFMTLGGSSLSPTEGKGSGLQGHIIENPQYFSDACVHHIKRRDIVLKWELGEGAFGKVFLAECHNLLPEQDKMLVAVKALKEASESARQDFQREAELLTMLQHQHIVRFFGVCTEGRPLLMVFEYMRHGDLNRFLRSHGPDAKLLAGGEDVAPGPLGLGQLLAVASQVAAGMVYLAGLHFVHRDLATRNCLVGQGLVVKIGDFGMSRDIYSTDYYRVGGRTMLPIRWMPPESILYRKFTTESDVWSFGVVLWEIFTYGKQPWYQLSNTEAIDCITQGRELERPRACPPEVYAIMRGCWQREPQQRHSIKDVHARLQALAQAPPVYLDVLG

Met(h) = Met(h) (Homo sapiens, UniProt P08581); assay: kinase panel activity, Met(h); conditions: compound at 20 μM; vs reference with no compound
CDK2/cyclinA(h) = CDK2/cyclinA(h) (Homo sapiens, UniProt P24941); assay: kinase panel activity, CDK2/cyclinA(h); conditions: compound at 20 μM; vs reference with no compound
LKB1(h) = LKB1(h) (Homo sapiens, UniProt Q15831); assay: kinase panel activity, LKB1(h); conditions: compound at 20 μM; vs reference with no compound
Chain of LKB1(h) (Q15831 whole entry): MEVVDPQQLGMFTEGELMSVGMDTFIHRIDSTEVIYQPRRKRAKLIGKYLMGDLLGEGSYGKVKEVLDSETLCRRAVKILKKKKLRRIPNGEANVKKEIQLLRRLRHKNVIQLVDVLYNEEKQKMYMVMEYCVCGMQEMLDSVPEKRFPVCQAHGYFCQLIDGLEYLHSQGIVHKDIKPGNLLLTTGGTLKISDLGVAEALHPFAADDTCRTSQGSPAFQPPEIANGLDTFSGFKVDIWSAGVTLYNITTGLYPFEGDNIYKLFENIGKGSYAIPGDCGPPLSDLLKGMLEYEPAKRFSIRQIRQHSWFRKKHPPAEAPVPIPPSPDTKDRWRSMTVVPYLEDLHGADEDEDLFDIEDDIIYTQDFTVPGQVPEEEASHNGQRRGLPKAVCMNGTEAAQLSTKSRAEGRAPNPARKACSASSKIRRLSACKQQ
Chain of LKB1(h) (Q7RTN6 whole entry partner): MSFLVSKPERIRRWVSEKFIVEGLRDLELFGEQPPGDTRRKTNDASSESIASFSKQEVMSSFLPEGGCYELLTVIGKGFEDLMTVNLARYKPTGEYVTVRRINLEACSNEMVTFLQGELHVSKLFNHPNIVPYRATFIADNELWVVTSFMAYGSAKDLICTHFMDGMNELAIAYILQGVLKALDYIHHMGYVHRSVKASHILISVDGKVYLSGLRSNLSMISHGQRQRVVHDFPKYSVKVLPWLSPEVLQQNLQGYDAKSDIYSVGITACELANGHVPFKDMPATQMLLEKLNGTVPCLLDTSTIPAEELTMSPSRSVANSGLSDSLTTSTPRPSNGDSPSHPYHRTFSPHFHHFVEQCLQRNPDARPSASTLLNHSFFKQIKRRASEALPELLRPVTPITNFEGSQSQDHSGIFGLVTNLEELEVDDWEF
Chain of LKB1(h) (Q9Y376 whole entry partner): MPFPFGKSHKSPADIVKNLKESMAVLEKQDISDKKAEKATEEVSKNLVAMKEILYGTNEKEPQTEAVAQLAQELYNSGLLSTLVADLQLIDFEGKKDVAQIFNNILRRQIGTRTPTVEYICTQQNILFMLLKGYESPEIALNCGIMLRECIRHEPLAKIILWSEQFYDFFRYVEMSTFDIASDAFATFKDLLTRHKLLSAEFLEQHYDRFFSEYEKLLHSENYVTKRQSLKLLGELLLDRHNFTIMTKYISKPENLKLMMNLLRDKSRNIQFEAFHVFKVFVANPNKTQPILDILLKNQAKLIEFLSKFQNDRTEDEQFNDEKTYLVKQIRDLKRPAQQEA

TBK1(h) = TBK1(h) (Homo sapiens, UniProt Q9UHD2); assay: kinase panel activity, TBK1(h); conditions: compound at 20 μM; vs reference with no compound
PAK6(h) = PAK6(h) (Homo sapiens, UniProt Q9NQU5); assay: kinase panel activity, PAK6(h); conditions: compound at 20 μM; vs reference with no compound
Chain of PAK6(h) (Q9NQU5 whole entry): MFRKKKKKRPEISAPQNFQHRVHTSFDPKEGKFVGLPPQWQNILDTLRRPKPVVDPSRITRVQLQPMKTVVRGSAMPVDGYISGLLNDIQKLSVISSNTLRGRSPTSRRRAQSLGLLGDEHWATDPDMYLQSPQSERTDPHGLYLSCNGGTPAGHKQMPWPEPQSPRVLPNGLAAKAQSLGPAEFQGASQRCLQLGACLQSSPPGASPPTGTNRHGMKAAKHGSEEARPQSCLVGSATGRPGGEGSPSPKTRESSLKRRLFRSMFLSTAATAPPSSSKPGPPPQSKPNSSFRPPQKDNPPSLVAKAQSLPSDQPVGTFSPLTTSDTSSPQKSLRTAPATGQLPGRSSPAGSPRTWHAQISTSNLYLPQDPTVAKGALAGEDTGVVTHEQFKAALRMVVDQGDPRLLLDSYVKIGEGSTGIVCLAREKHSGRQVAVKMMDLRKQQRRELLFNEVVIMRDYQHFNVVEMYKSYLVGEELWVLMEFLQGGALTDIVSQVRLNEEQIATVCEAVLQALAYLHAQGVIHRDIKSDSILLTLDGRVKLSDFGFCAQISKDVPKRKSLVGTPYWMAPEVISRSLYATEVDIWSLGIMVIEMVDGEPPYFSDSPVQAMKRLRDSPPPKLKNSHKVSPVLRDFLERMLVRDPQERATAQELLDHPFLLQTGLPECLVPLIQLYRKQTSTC

IRR(h) = IRR(h) (Homo sapiens, UniProt P14616); assay: kinase panel activity, IRR(h); conditions: compound at 20 μM; vs reference with no compound
GSK3α(h) = GSK3α(h) (Homo sapiens, UniProt P49840); assay: kinase panel activity, GSK3α(h); conditions: compound at 20 μM; vs reference with no compound
Flt1(h) = Flt1(h) (Homo sapiens, UniProt P17948); assay: kinase panel activity, Flt1(h); conditions: compound at 20 μM; vs reference with no compound
DAPK2(h) = DAPK2(h) (Homo sapiens, UniProt Q9UIK4); assay: kinase panel activity, DAPK2(h); conditions: compound at 20 μM; vs reference with no compound
PKA(h) = PKA(h) (Homo sapiens, UniProt P17612); assay: kinase panel activity, PKA(h); conditions: compound at 20 μM; vs reference with no compound
PDK1(h) = PDK1(h) (Homo sapiens, UniProt O15530); assay: kinase panel activity, PDK1(h); conditions: compound at 20 μM; vs reference with no compound
NEK2(h) = NEK2(h) (Homo sapiens, UniProt P51955); assay: kinase panel activity, NEK2(h); conditions: compound at 20 μM; vs reference with no compound
ALK(h) = ALK(h) (Homo sapiens, UniProt Q9UM73); assay: kinase panel activity, ALK(h); conditions: compound at 20 μM; vs reference with no compound
IGF-1R(h) = IGF-1R(h) (Homo sapiens, UniProt P08069); assay: kinase panel activity, IGF-1R(h); conditions: compound at 20 μM; vs reference with no compound
MST2(h) = MST2(h) (Homo sapiens, UniProt Q13188); assay: kinase panel activity, MST2(h); conditions: compound at 20 μM; vs reference with no compound
Chain of MST2(h) (Q13188 whole entry): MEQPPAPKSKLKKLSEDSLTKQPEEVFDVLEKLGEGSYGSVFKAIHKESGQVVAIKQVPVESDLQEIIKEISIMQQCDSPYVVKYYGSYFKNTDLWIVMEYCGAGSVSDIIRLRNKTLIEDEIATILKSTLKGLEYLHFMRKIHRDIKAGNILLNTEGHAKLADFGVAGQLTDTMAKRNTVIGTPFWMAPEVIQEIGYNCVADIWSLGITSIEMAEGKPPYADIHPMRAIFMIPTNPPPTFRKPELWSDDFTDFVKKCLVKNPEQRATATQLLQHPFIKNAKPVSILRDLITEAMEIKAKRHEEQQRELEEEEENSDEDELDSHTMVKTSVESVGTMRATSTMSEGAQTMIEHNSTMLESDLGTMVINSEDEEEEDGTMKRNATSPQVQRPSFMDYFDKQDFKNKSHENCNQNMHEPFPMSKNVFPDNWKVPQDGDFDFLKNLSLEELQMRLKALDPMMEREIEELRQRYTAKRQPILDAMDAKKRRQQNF

MSK2(h) = MSK2(h) (Homo sapiens, UniProt O75676); assay: kinase panel activity, MSK2(h); conditions: compound at 20 μM; vs reference with no compound
EphB2(h) = EphB2(h) (Homo sapiens, UniProt P29323); assay: kinase panel activity, EphB2(h); conditions: compound at 20 μM; vs reference with no compound
Chain of EphB2(h) (P29323 19-1055): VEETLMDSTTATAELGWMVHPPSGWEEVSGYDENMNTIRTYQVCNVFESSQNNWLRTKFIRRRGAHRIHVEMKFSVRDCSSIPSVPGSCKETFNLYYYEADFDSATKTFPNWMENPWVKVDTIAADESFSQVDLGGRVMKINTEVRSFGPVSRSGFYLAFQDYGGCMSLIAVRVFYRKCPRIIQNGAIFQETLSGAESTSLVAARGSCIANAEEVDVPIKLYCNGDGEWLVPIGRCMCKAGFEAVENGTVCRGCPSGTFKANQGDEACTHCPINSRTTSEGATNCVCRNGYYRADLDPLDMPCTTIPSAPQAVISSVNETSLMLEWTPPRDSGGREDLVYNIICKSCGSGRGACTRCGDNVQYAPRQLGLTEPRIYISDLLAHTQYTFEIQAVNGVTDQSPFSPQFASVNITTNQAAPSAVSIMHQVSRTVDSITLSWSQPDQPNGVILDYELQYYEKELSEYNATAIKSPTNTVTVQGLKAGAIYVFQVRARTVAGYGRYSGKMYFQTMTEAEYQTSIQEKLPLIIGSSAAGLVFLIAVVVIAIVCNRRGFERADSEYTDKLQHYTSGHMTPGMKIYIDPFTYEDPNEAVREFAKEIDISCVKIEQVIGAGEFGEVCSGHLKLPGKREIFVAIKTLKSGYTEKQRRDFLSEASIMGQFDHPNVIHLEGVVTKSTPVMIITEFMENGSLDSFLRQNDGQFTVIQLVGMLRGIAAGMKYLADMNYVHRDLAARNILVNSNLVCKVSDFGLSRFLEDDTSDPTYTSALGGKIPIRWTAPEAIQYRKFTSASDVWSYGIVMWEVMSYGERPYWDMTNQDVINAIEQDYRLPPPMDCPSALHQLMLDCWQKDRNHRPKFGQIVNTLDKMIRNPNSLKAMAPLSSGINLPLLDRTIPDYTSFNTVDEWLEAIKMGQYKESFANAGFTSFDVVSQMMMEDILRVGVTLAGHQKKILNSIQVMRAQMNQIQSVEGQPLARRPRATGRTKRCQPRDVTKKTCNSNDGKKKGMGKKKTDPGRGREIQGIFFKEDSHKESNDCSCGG

SAPK2a(h) = SAPK2a(h) (Homo sapiens, UniProt Q16539); assay: kinase panel activity, SAPK2a(h); conditions: compound at 20 μM; vs reference with no compound
Aurora-A(h) = Aurora-A(h) (Homo sapiens, UniProt O14965); assay: kinase panel activity, Aurora-A(h); conditions: compound at 20 μM; vs reference with no compound
Ros(h) = Ros(h) (Homo sapiens, UniProt P08922); assay: kinase panel activity, Ros(h); conditions: compound at 20 μM; vs reference with no compound
EGFR(h) = EGFR(h) (Homo sapiens, UniProt P00533); assay: kinase panel activity, EGFR(h); conditions: compound at 20 μM; vs reference with no compound
TrkB(h) = TrkB(h) (Homo sapiens, UniProt Q16620); assay: kinase panel activity, TrkB(h); conditions: compound at 20 μM; vs reference with no compound
DAPK1(h) = DAPK1(h) (Homo sapiens, UniProt P53355); assay: kinase panel activity, DAPK1(h); conditions: compound at 20 μM; vs reference with no compound
PKBα(h) = PKBα(h) (Homo sapiens, UniProt P31749); assay: kinase panel activity, PKBα(h)
CDK5/p25(h) = CDK5/p25(h) (Homo sapiens, UniProt Q00535); assay: kinase panel activity, CDK5/p25(h); conditions: compound at 20 μM; vs reference with no compound
NLK(h) = NLK(h) (Homo sapiens, UniProt Q9UBE8); assay: kinase panel activity, NLK(h); conditions: compound at 20 μM; vs reference with no compound
IR(h) = IR(h) (Homo sapiens, UniProt P06213); assay: kinase panel activity, IR(h); conditions: compound at 20 μM; vs reference with no compound
cKit(h) = cKit(h) (Homo sapiens, UniProt P10721); assay: kinase panel activity, cKit(h); conditions: compound at 20 μM; vs reference with no compound
IRAK1(h) = IRAK1(h) (Homo sapiens, UniProt P51617); assay: kinase panel activity, IRAK1(h); conditions: compound at 20 μM; vs reference with no compound
CSK(h) = CSK(h) (Homo sapiens, UniProt P41240); assay: kinase panel activity, CSK(h); conditions: compound at 20 μM; vs reference with no compound
Pim-2(h) = Pim-2(h) (Homo sapiens, UniProt Q9P1W9); assay: kinase panel activity, Pim-2(h); conditions: compound at 20 μM; vs reference with no compound
Tie2(h) = Tie2(h) (Homo sapiens, UniProt Q02763); assay: kinase panel activity, Tie2(h); conditions: compound at 20 μM; vs reference with no compound
PKG1β(h) = PKG1β(h) (Homo sapiens, UniProt Q13976); assay: kinase panel activity, PKG1β(h); conditions: compound at 20 μM; vs reference with no compound
Fgr(h) = Fgr(h) (Homo sapiens, UniProt P09769); assay: kinase panel activity, Fgr(h); conditions: compound at 20 μM; vs reference with no compound
CDK5/p35(h) = CDK5/p35(h) (Homo sapiens, UniProt Q00535); assay: kinase panel activity, CDK5/p35(h); conditions: compound at 20 μM; vs reference with no compound
IKKβ(h) = IKKβ(h) (Homo sapiens, UniProt O14920); assay: kinase panel activity, IKKβ(h); conditions: compound at 20 μM; vs reference with no compound

SMILES	percent activity of JNK1α1(h) (JNK1α1(h)) [%]	percent activity of SAPK3(h) (SAPK3(h)) [%]	percent activity of CDK3/cyclinE(h) (CDK3/cyclinE(h)) [%]	percent activity of TrkA(h) (TrkA(h)) [%]	percent activity of Met(h) (Met(h)) [%]	percent activity of CDK2/cyclinA(h) (CDK2/cyclinA(h)) [%]	percent activity of LKB1(h) (LKB1(h)) [%]	percent activity of TBK1(h) (TBK1(h)) [%]	percent activity of PAK6(h) (PAK6(h)) [%]	percent activity of IRR(h) (IRR(h)) [%]	percent activity of GSK3α(h) (GSK3α(h)) [%]	percent activity of Flt1(h) (Flt1(h)) [%]	percent activity of DAPK2(h) (DAPK2(h)) [%]	percent activity of PKA(h) (PKA(h)) [%]	percent activity of PDK1(h) (PDK1(h)) [%]	percent activity of NEK2(h) (NEK2(h)) [%]	percent activity of ALK(h) (ALK(h)) [%]	percent activity of IGF-1R(h) (IGF-1R(h)) [%]	percent activity of MST2(h) (MST2(h)) [%]	percent activity of MSK2(h) (MSK2(h)) [%]	other results
O=C(O)[C@H]1O[C@@H](Oc2ccc(/C=C/c3cc(O)cc(O)c3)cc2)[C@H](O)[C@@H](O)[C@@H]1O [Res 4′-Gluc, resveratrol-4-glucuronide]	91	106	101	32	122	98	95	80	128	93	57	76	92	105	97	103	87	87	120	94	percent activity of EphB2(h) (EphB2(h)): 109%; percent activity of SAPK2a(h) (SAPK2a(h)): 107%; percent activity of Aurora-A(h) (Aurora-A(h)): 33%; percent activity of Ros(h) (Ros(h)): 105%; percent activity of EGFR(h) (EGFR(h)): 106%; percent activity of TrkB(h) (TrkB(h)): 100%; percent activity of DAPK1(h) (DAPK1(h)): 107%; percent activity of PKBα(h) (PKBα(h); compound at 20 μM, vs reference with no compound): 96%; percent activity of CDK5/p25(h) (CDK5/p25(h)): 91%; percent activity of NLK(h) (NLK(h)): 99%; percent activity of IR(h) (IR(h)): 80%; percent activity of cKit(h) (cKit(h)): 100%; percent activity of IRAK1(h) (IRAK1(h)): 100%; percent activity of CSK(h) (CSK(h)): 100%; percent activity of Pim-2(h) (Pim-2(h)): 76%; percent activity of Tie2(h) (Tie2(h)): 76%; percent activity of PKG1β(h) (PKG1β(h)): 58%; percent activity of Fgr(h) (Fgr(h)): 67%; percent activity of CDK5/p35(h) (CDK5/p35(h)): 104%; percent activity of IKKβ(h) (IKKβ(h)): 98%
Oc1ccc(C=Cc2cc(O)cc(O)c2)cc1 [resveratrol, 3,5,4′-trihydroxystilbene]	89	110	75	31	114	80	102	62	103	40	79	52	67	100	108	102	39	75	73	60	percent activity of EphB2(h) (EphB2(h)): 113%; percent activity of SAPK2a(h) (SAPK2a(h)): 100%; percent activity of Aurora-A(h) (Aurora-A(h)): 65%; percent activity of Ros(h) (Ros(h)): 102%; percent activity of EGFR(h) (EGFR(h)): 90%; percent activity of TrkB(h) (TrkB(h)): 98%; percent activity of DAPK1(h) (DAPK1(h)): 71%; activity at 20 µM (PKBα(h); read-out: percent activity of PKBα(h)): 94%; percent activity of CDK5/p25(h) (CDK5/p25(h)): 64%; percent activity of NLK(h) (NLK(h)): 30%; percent activity of IR(h) (IR(h)): 71%; percent activity of cKit(h) (cKit(h)): 68%; percent activity of IRAK1(h) (IRAK1(h)): 97%; percent activity of CSK(h) (CSK(h)): 94%; percent activity of Pim-2(h) (Pim-2(h)): 14%; percent activity of Tie2(h) (Tie2(h)): 94%; percent activity of PKG1β(h) (PKG1β(h)): 56%; percent activity of Fgr(h) (Fgr(h)): 78%; percent activity of CDK5/p35(h) (CDK5/p35(h)): 77%; percent activity of IKKβ(h) (IKKβ(h)): 116%
